Measurements: patent US5821363A, “Antineoplastic use and pharmaceutical compositions containing them” (priority 1996, dated 1998)
Converted amounts (≈) assume the structure as drawn. Like-named read-outs stand apart in the source and are kept apart here.

Columns and labels:
Type in all cases: cell-based
[1] = tested on: L1210 mouse leukemia carcinoma cells; experiment: cytotoxicity / inhibition of cell proliferation in L1210 leukemia cells; conditions: for IC90: L1210, read-out: IC90 (90% growth inhibitory concentration)
KB-3-1 = experiment: killing of drug sensitive (non-MDR) KB-3-1 cells; conditions: Homo sapiens
KB-V1 = experiment: killing of multidrug resistant KB-V1 cells; conditions: for IC50: Homo sapiens
[2] = tested on: A2780 human ovarian carcinoma; experiment: cytotoxicity in A2780 human ovarian carcinoma cells
[3] = L1210, read-out: L1210 (IC50 μg/ml)
[4] = KB-3-1 drug sensitive cells, Table III, read-out: KB-3-1 (IC50; nM)
[5] = L1210 leukemia, Table I, 50% inhibition of cell proliferation vs untreated control, read-out: L1210 (IC50 μg/ml)
[6] = KB-V1 multidrug resistant cells, Table III, read-out: KB-V1 (IC50; nM)
[7] = ratio of IC50 KB-V1 to IC50 KB-3-1
[8] = KB 3-1, read-out: KB-3-1 (IC50; nM)
[9] = KB-V1, read-out: KB-V1 (IC50; nM)
[10] = Homo sapiens, A2780, read-out: A2780 (IC50 μg/ml)
[11] = A2780 human ovarian carcinoma, Table II, read-out: A2780 (IC50 μg/ml)

CC[Si](CC)(CC)O[C@H]1C[C@H]2OC[C@@]2(OC(C)=O)[C@H]2[C@H](OC(=O)c3ccccc3)[C@]3(O)CC(OC(=O)[C@H](O)[C@@H](NC(=O)OC(C)(C)C)c4ccccc4)=C(C)[C@H]([C@@H](OC(C)=O)C(=O)[C@]12C)C3(C)C [Compound 6, 7-TES-13-(N-Boc-β-phenylisoserinyl)-Δ^12,13-iso-baccatin III]
IC50 [1, 3]: > 0.1 µg/mL

CC(=O)O[C@H]1C(=O)[C@@]2(C)[C@H]([C@H](OC(=O)c3ccccc3)[C@]3(O)CC(OC(=O)[C@H](O)[C@@H](NC(=O)OC(C)(C)C)c4ccccc4)=C(C)[C@H]1C3(C)C)[C@]1(OC(C)=O)CO[C@@H]1C[C@@H]2O [Compound 7, 13-(N-Boc-β-phenylisoserinyl)-Δ^12,13-iso-baccatin III]
IC50 (KB-3-1; [4]): 0.2 nM
IC50 [1, 5]: 0.0046 µg/mL (≈ 5.41 nM)
IC50 (KB-V1; [6]): 40 nM
Ratio: KBV-1/KB-3-1 (KB-V1; [7]): 228

CC(=O)O[C@@]12CO[C@@H]1C[C@H](O)[C@@]1(C)C(=O)[C@H](O)[C@H]3C(C)=C(OC(=O)[C@H](O)[C@@H](NC(=O)OC(C)(C)C)c4ccccc4)C[C@@](O)([C@@H](OC(=O)c4ccccc4)[C@H]21)C3(C)C [Compound 8, 10-deacetyl-13-(N-Boc-β-phenylisoserinyl)-Δ^12,13-iso-baccatin III]
IC50 [1, 5]: 0.0059 µg/mL (≈ 7.3 nM)

CC(=O)O[C@H]1C(=O)[C@]2(C)[C@@H](OC(=O)OCC(Cl)(Cl)Cl)C[C@H]3OC[C@@]3(OC(C)=O)[C@H]2[C@H](OC(=O)c2ccccc2)[C@]2(O)CC(OC(=O)[C@H](O)[C@@H](NC(=O)OC(C)(C)C)c3ccccc3)=C(C)[C@H]1C2(C)C [Compound 12, 7-Troc-13-(N-Boc-β-phenylisoserinyl)-Δ^12,13-iso-baccatin III]
IC50 [1, 3]: 0.011 µg/mL (≈ 10.7 nM)

CC(=O)O[C@H]1C(=O)[C@]23C[C@H]2C[C@H]2OC[C@@]2(OC(C)=O)[C@H]3[C@H](OC(=O)c2ccccc2)[C@]2(O)CC(OC(=O)[C@H](OC(=O)OCC(Cl)(Cl)Cl)[C@@H](NC(=O)OC(C)(C)C)c3ccccc3)=C(C)[C@H]1C2(C)C [Compound 14, 2'-Troc-13-(N-Boc-β-phenylisoserinyl)-7-deoxy-7b,8b-methano-Δ^12,13-iso-baccatin III]
IC50 [1, 3]: 0.012 µg/mL (≈ 11.9 nM)

CC(=O)O[C@H]1C(=O)[C@]2(C)C=C[C@H]3OC[C@@]3(OC(C)=O)[C@H]2[C@H](OC(=O)c2ccccc2)[C@]2(O)CC(OC(=O)[C@H](OC(=O)OCC(Cl)(Cl)Cl)[C@@H](NC(=O)OC(C)(C)C)c3ccccc3)=C(C)[C@H]1C2(C)C [Compound 15, 2'-Troc-13-(N-Boc-β-phenylisoserinyl)-7-deoxy-Δ^6,7 -Δ^12,13-iso-baccatin III]
IC50 [1, 3]: 0.0066 µg/mL (≈ 6.55 nM)

CC(=O)O[C@H]1C(=O)[C@]2(C)C(F)C[C@H]3OC[C@@]3(OC(C)=O)[C@H]2[C@H](OC(=O)c2ccccc2)[C@]2(O)CC(OC(=O)[C@H](O)[C@@H](NC(=O)OC(C)(C)C)c3ccccc3)=C(C)[C@H]1C2(C)C (stereo partly drawn) [Compound 16, 13-(N-Boc-β-phenylisoserinyl)-7-deoxy-7-fluoro-Δ^12,13-iso-baccatin III]
IC50 [1, 3]: 0.0029 µg/mL (≈ 3.4 nM)

CC(=O)O[C@H]1C(=O)[C@]23C[C@H]2C[C@H]2OC[C@@]2(OC(C)=O)[C@H]3[C@H](OC(=O)c2ccccc2)[C@]2(O)CC(OC(=O)[C@H](O)[C@@H](NC(=O)OC(C)(C)C)c3ccccc3)=C(C)[C@H]1C2(C)C [Compound 17, 13-(N-Boc-β-phenylisoserinyl)-7-deoxy-7β,8β-methano-Δ^12,13-iso-baccatin III]
IC50 (KB-3-1; [8]): 0.22 nM
IC90 [1]: 17 ng/mL (≈ 20.4 nM)
IC50 [1, 3]: 0.0018 µg/mL (≈ 2.16 nM)
IC50 (KB-V1; [9]): 13 nM
Ratio: KBV-1/KB-3-1 (KB-V1; human, kb-v1 vs kb-3-1 cells): 61

CC(=O)O[C@H]1C(=O)[C@]2(C)C=C[C@H]3OC[C@@]3(OC(C)=O)[C@H]2[C@H](OC(=O)c2ccccc2)[C@]2(O)CC(OC(=O)[C@H](O)[C@@H](NC(=O)OC(C)(C)C)c3ccccc3)=C(C)[C@H]1C2(C)C [Compound 18, 13-(N-Boc-β-phenylisoserinyl)-7-deoxy-Δ^6,7 -Δ^12,13-iso-baccatin III]
IC50 (KB-3-1; [8]): 0.2 nM
IC50 [1, 3]: 0.0022 µg/mL (≈ 2.64 nM)
IC50 (KB-V1; [9]): 6.2 nM
Ratio: KBV-1/KB-3-1 (KB-V1; human, kb-v1 vs kb-3-1 cells): 34

CC[Si](CC)(CC)O[C@H]1C[C@H]2OC[C@@]2(OC(C)=O)[C@H]2[C@H](OC(=O)c3ccccc3)[C@]3(O)CC(OC(=O)[C@H](O)[C@@H](NC(=O)NC(C)(C)C)c4ccccc4)=C(C)[C@H]([C@@H](OC(C)=O)C(=O)[C@]12C)C3(C)C [Compound 32a, 7-TES-13-(N-(t-butylaminocarbonyl)-β-phenylisoserinyl)-Δ^12,13-iso-baccatin III]
IC50 [1, 3]: 0.07 µg/mL (≈ 72.7 nM)

CC(=O)O[C@H]1C(=O)[C@@]2(C)[C@H]([C@H](OC(=O)c3ccccc3)[C@]3(O)CC(OC(=O)[C@H](O)[C@@H](NC(=O)NC(C)(C)C)c4ccccc4)=C(C)[C@H]1C3(C)C)[C@]1(OC(C)=O)CO[C@@H]1C[C@@H]2O [Compound 32b, 13-(N-(t-butylaminocarbonyl)-β-phenylisoserinyl)-Δ^12,13-iso-baccatin III]
IC50 (KB-3-1; [4]): 0.081 nM
IC50 [1, 5]: 0.0053 µg/mL (≈ 6.24 nM)
IC50 (KB-V1; [6]): 1100 nM
Ratio: KBV-1/KB-3-1 (KB-V1; [7]): 17,650

CC(=O)O[C@H]1C(=O)[C@]23C[C@H]2C[C@H]2OC[C@@]2(OC(C)=O)[C@H]3[C@H](OC(=O)c2ccccc2)[C@]2(O)CC(OC(=O)[C@H](O)[C@@H](NC(=O)NC(C)(C)C)c3ccccc3)=C(C)[C@H]1C2(C)C [Compound 36, 13-(N-(t-butylaminocarbonyl)-β-phenylisoserinyl)-7-deoxy-7β,8β-methano-Δ^12,13-iso-baccatin III]
IC50 (KB-3-1; [4]): 0.05 nM
IC50 (KB-V1; [6]): 360 nM
Ratio: KBV-1/KB-3-1 (KB-V1; [7]): 11,400

CC(=O)O[C@H]1C(=O)[C@]2(C)C=C[C@H]3OC[C@@]3(OC(C)=O)[C@H]2[C@H](OC(=O)c2ccccc2)[C@]2(O)CC(OC(=O)[C@H](O)[C@@H](NC(=O)NC(C)(C)C)c3ccccc3)=C(C)[C@H]1C2(C)C [Compound 38, 13-(N-(t-butylaminocarbonyl)-β-phenylisoserinyl)-7-deoxy-Δ^6,7 -Δ^12,13-iso-baccatin III]
IC50 (KB-3-1; [8]): 0.078 nM
IC50 (KB-V1; [9]): 360 nM
Ratio: KBV-1/KB-3-1 (KB-V1; human, kb-v1 vs kb-3-1 cells): 4,800

CCOCO[C@H]1C[C@H]2OC[C@@]2(OC(C)=O)[C@H]2[C@H](OC(=O)c3ccccc3)[C@]3(O)CC(OC(=O)[C@H](O)[C@@H](NC(=O)OC(C)(C)C)c4ccccc4)=C(C)[C@H]([C@@H](OC(C)=O)C(=O)[C@]12C)C3(C)C [Compound 41, 7-(O-ethoxymethyl)-13-(N-Boc-β-phenylisoserinyl)-Δ^12,13-iso-baccatin III]
IC50 (KB-3-1; [4]): 0.011 nM
IC50 [1, 5]: 0.0007 µg/mL (≈ 0.771 nM)
IC50 (KB-V1; [6]): 0.77 nM
Ratio: KBV-1/KB-3-1 (KB-V1; [7]): 170

CCOCO[C@H]1C[C@H]2OC[C@@]2(OC(C)=O)[C@H]2[C@H](OC(=O)c3ccccc3)[C@]3(O)CC(OC(=O)[C@H](O)[C@@H](NC(=O)NC(C)(C)C)c4ccccc4)=C(C)[C@H]([C@@H](OC(C)=O)C(=O)[C@]12C)C3(C)C [Compound 43, 7-(O-ethoxymethyl)-13-(N-(t-butylaminocarbonyl)-β-phenylisoserinyl)-Δ^12,13-iso-baccatin III]
IC50 [1, 5]: 0.0014 µg/mL (≈ 1.54 nM)
IC50 (KB-V1; [6]): 120 nM
Ratio: KBV-1/KB-3-1 (KB-V1; [7]): 2.5 × 10^5

COCO[C@H]1C[C@H]2OC[C@@]2(OC(C)=O)[C@H]2[C@H](OC(=O)c3ccccc3)[C@]3(O)CC(OC(=O)[C@H](O)[C@@H](NC(=O)OCc4ccccc4)c4ccccc4)=C(C)[C@H]([C@@H](OC(C)=O)C(=O)[C@]12C)C3(C)C [Compound 64, 7-(O-methoxymethyl)-13-(N-Cbz-β-phenylisoserinyl)-Δ^12,13-iso-baccatin III]
IC50 [2, 10]: 0.0029 µg/mL (≈ 3.13 nM)

COCO[C@H]1C[C@H]2OC[C@@]2(OC(C)=O)[C@H]2[C@H](OC(=O)c3ccccc3)[C@]3(O)CC(OC(=O)[C@H](O)[C@@H](NC(=O)OC(C)(C)C)c4ccccc4)=C(C)[C@H]([C@@H](OC(C)=O)C(=O)[C@]12C)C3(C)C [Compound 66, 7-(O-methoxymethyl)-13-(N-Boc-β-phenylisoserinyl)-Δ^12,13-iso-baccatin III]
IC50 [2, 11]: 0.00026 µg/mL (≈ 0.291 nM)
IC50 (KB-V1; [6]): 0.046 nM
Ratio: KBV-1/KB-3-1 (KB-V1; [7]): 300

COCO[C@H]1C[C@H]2OC[C@@]2(OC(C)=O)[C@H]2[C@H](OC(=O)c3ccccc3)[C@]3(O)CC(OC(=O)[C@H](O)[C@@H](NC(=O)NC(C)(C)C)c4ccccc4)=C(C)[C@H]([C@@H](OC(C)=O)C(=O)[C@]12C)C3(C)C [Compound 67, 7-(O-methoxymethyl)-13-(N-t-butylaminocarbonyl-β-phenylisoserinyl)-Δ^12,13-iso-baccatin III]
IC50 [2, 10]: 0.00042 µg/mL (≈ 0.47 nM)

CSCO[C@H]1C[C@H]2OC[C@@]2(OC(C)=O)[C@H]2[C@H](OC(=O)c3ccccc3)[C@]3(O)CC(OC(=O)[C@H](O)[C@@H](NC(=O)NC(C)(C)C)c4ccccc4)=C(C)[C@H]([C@@H](OC(C)=O)C(=O)[C@]12C)C3(C)C [Compound 72, 7-(O-methylthiomethyl)-13-(N-t-butylaminocarbonyl-β-phenylisoserinyl)-Δ^12,13-iso-baccatin III]
IC50 [2, 10]: 0.0004 µg/mL (≈ 0.44 nM)

CO[C@H]1C[C@H]2OC[C@@]2(OC(C)=O)[C@H]2[C@H](OC(=O)c3ccccc3)[C@]3(O)CC(OC(=O)[C@H](O)[C@@H](NC(=O)NC(C)(C)C)c4ccccc4)=C(C)[C@H]([C@@H](OC(C)=O)C(=O)[C@]12C)C3(C)C [Compound 73, 7-(O-methyl)-13-(N-t-butylaminocarbonyl-β-phenylisoserinyl)-Δ^12,13-iso-baccatin III]
IC50 [2, 11]: 0.00039 µg/mL (≈ 0.452 nM)

CC(=O)O[C@H]1C(=O)[C@@]2(C)[C@H]([C@H](OC(=O)c3ccccc3)[C@]3(O)C[C@H](OC(=O)[C@H](O)[C@@H](NC(=O)c4ccccc4)c4ccccc4)C(C)=C1C3(C)C)[C@]1(OC(C)=O)CO[C@@H]1C[C@@H]2O [taxol, reference compound]
IC50 [2, 10]: 0.002 to 0.003 µg/mL (≈ 2.34 to 3.51 nM)
IC50 (KB-3-1; [8]): 1.3 nM
IC90 [1]: 18 ng/mL (≈ 21.1 nM)
IC50 [1, 3]: 0.017 µg/mL (≈ 19.9 nM)
IC50 (KB-V1; [9]): 15000 nM
Ratio: KBV-1/KB-3-1 (KB-V1; human, kb-v1 vs kb-3-1 cells): 11,538
average ratio (IC50 KB-V1/IC50 KB-3-1) (KB-V1; human, kb-v1 vs kb-3-1 cells): 7,570
